Molecules are shown by their SMILES. pIC50: −log10 of the molar value.

The target of this experiment is CDK7/CycH/MNAT1 (Homo sapiens (Human), UniProt P50613). Description: Biochemical Assay for CDK7 (TR-FRET kinase assay). The conditions noted are these: 60 min pre-incubation with kinase, 1 mM ATP. Here is the method: Biochemical Assay for CDK7:
The ability of compounds to inhibit CDK7 kinase activity was tested in a TR-FRET assay using 5 nM of CDK7/CycH/MNAT1 obtained from Invitrogen, USA. Test compounds were pre-incubated with the kinase at room temperature for 60 min. After the incubation, substrate mix [100 nM Ultra-light MBP (Perkin Elmer, USA) and 1 mM ATP (Sigma)] was added. The above reaction was stopped by the addition of 40 mM EDTA after 60 minutes of kinase reaction. 1 nM Eu-labelled antiphospho-MBP antibody [Perkin Elmer, USA] was added, mixed well and the fluorescence emission at 615 nm and 665 nm [excitation at 340 nm] was measured. The final DMSO concentration in the assay was 1%. For IC50 determination, appropriate concentrations were made by ⅓^rd serial dilutions of 10 mM DMSO stock solution of test compound. All the fluorescence measurements were made in a Victor 3 Multilabel Counter [Perkin Elmer, USA]. The IC50 was determined by fitting the dose response data to sigmoidal curve fitting equation using GraphPad Prism software V5. To identify compounds that inhibit CDK7 irreversibly, time depended inhibition studies were carried by pre-incubating compound with the enzyme at three time points (20, 60 and 180 min) and carrying out assay as described above.
The compounds were screened by the above mentioned assay procedure.

CDK7/CycH/MNAT1, sequence (P50613 whole entry): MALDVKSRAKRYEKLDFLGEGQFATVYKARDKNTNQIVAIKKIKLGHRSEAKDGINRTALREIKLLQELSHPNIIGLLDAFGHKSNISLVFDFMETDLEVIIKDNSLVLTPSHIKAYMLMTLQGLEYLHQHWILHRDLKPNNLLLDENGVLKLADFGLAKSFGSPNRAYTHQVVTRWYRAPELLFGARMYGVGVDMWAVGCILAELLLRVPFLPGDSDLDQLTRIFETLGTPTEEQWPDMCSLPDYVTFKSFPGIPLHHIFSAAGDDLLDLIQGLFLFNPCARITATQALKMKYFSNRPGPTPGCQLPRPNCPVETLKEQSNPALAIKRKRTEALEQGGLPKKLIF
CDK7/CycH/MNAT1, sequence (P51946 whole entry partner): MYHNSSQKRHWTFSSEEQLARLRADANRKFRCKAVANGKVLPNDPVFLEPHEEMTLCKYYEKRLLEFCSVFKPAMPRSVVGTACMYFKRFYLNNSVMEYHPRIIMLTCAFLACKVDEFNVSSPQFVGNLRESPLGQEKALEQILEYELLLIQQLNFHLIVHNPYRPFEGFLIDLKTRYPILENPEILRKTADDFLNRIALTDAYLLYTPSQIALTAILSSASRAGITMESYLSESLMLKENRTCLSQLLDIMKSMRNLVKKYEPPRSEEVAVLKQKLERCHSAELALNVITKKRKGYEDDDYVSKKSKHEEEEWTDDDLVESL
CDK7/CycH/MNAT1, sequence (P51948 whole entry partner): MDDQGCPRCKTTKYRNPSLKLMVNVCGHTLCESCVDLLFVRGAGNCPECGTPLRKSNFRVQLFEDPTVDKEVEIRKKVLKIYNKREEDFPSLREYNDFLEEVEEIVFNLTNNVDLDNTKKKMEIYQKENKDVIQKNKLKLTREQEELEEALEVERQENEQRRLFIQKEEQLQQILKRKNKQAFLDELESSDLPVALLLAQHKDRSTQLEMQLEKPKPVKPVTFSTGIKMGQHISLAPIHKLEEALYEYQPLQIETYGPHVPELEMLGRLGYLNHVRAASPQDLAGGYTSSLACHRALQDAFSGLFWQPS

As usually defined, the inhibition is the share of the control response that was lost under treatment. Read a high inhibition as a strong effect. What is called pIC50 is the IC50 on a negative log10 scale, so that one unit is a factor of ten. Low readings indicate a large IC50, high ones a small IC50. In turn, `C=CC(=O)Nc1ccc(-c2cccc(C(C)C(=O)Nc3cc(C(C)(C)C)[nH]n3)c2)cc1` (centres unmarked) [Compound 88, N-(3′-(1-((5-(tert-butyl)-1H-pyrazol-3-yl)amino)-1-oxopropan-2-yl)-[1,1′-biphenyl]-4-yl)acrylamide] had a pIC50 of less than 7.00. The molecule further registered an inhibition at 10 µM (10 μM compound) of 62%.
The matching figures for `C=CC(=O)Nc1ccc(-c2cccc(C(CC)C(=O)Nc3cc(C4CC4)[nH]n3)c2)cc1F` (centres unmarked) [Compound 27, 2-(4′-acrylamido-3′-fluoro-[1,1′-biphenyl]-3-yl)-N-(5-cyclopropyl-1H-pyrazol-3-yl)butanamide]: more than 7.60 and 98%.
The molecule `CC(C(=O)Nc1cc(C2CC2)[nH]n1)c1cccc(-c2ccc(NC(=O)/C=C/CN3CCOCC3)nc2)c1` (single isomer, unassigned) [Compound 12, (E)-N-(5-(3-(1-((5-cyclopropyl-1H-pyrazol-3-yl)amino)-1-oxopropan-2-yl)phenyl)pyridin-2-yl)-4-morpholinobut-2-enamide] had a pIC50 of more than 7.60. In addition, the “% inhibition @ 10 μM” value (10 μM compound) is on record as 98%.
Regarding `CC(C(=O)Nc1n[nH]c2ccccc12)c1cccc(-c2ccc(NC(=O)/C=C/CN(C)C)cc2)c1` (centres unmarked) [Compound 91, (E)-N-(3′-(1-((1H-indazol-3-yl)amino)-1-oxopropan-2-yl)-[1,1′-biphenyl]-4-yl)-4-(dimethylamino)but-2-enamide], the pIC50 is less than 7.00. Also, for the setting “10 μM compound”, at 10 µM the inhibition was 84%.
In turn, `CC(C(=O)Nc1cc(C2CC2)[nH]n1)c1cccc(-c2ccc(NC(=O)/C=C/CN(C)C)nc2)c1` (centres unmarked) [Compound 42, (E)-N-(5-(3-(1-((5-cyclopropyl-1H-pyrazol-3-yl)amino)-1-oxopropan-2-yl)phenyl)pyridin-2-yl)-4-(dimethylamino)but-2-enamide] showed a pIC50 of more than 7.60. In addition, the inhibition at 10 µM (10 μM compound) stood at 98%.
`CCC(C(=O)Nc1cc(C2CC2)[nH]n1)c1cccc(-c2ccc(NC(=O)/C=C/CN(C)C)c(F)c2)c1` (centres unmarked) [Compound 31, (E)-N-(3′-(1-((5-cyclopropyl-1H-pyrazol-3-yl)amino)-1-oxobutan-2-yl)-3-fluoro-[1,1′-biphenyl]-4-yl)-4-(dimethylamino)but-2-enamide] had a pIC50 of more than 7.60. Testing at 10 µM (10 μM compound) gave an inhibition of 100%.
The matching figures for `CC(C(=O)Nc1cc(C2CC2)[nH]n1)c1cccc(-c2ccc(NC(=O)/C=C/CN3CCOCC3)c(F)n2)c1` (centres unmarked) [Compound 58, (E)-N-(6-(3-(1-((5-cyclopropyl-1H-pyrazol-3-yl)amino)-1-oxopropan-2-yl)phenyl)-2-fluoropyridin-3-yl)-4-morpholinobut-2-enamide]: less than 7.00 and 90%.
The matching figures for `C=CC(=O)Nc1ccc(-c2cccc(C(C(=O)Nc3cc(C4CC4)[nH]n3)C(C)C)c2)cc1F` (centres unmarked) [Compound 25, 2-(4′-acrylamido-3′-fluoro-[1,1′-biphenyl]-3-yl)-N-(5-cyclopropyl-1H-pyrazol-3-yl)-3-methylbutanamide]: 7.00 to 7.60 and 97%.
For `CON(C)C/C=C/C(=O)Nc1ccc(-c2cccc(C(C)C(=O)Nc3cc(C4CC4)[nH]n3)c2)cn1` (centres unmarked) [Compound 62, (E)-N-(5-(3-(1-((5-cyclopropyl-1H-pyrazol-3-yl)amino)-1-oxopropan-2-yl)phenyl)pyridin-2-yl)-4-(methoxy(methyl)amino)but-2-enamide], in that order: less than 7.00 and 81%.
As for `CC(C(=O)Nc1cc(C2CCCC2)[nH]n1)c1cccc(-c2ccc(NC(=O)/C=C/CN(C)C)c(F)c2)c1` (centres unmarked) [Compound 28, (E)-N-(3′-(1-((5-cyclopentyl-1H-pyrazol-3-yl)amino)-1-oxopropan-2-yl)-3-fluoro-[1,1′-biphenyl]-4-yl)-4-(dimethylamino)but-2-enamide], the pIC50 is 7.00 to 7.60. 10 µM produced 96% inhibition (10 μM compound).
The matching figures for `CC(C(=O)Nc1cc(C2CC2)[nH]n1)c1cccc(-c2ccc(NC(=O)/C=C/CN3CCOCC3)c(F)c2)c1` (centres unmarked) [Compound 34, (E)-N-(3′-(1-((5-cyclopropyl-1H-pyrazol-3-yl)amino)-1-oxopropan-2-yl)-3-fluoro-[1,1′-biphenyl]-4-yl)-4-morpholinobut-2-enamide]: less than 7.00 and 88%.
`CC(C(=O)Nc1cc(C2CC2)[nH]n1)c1cccc(-c2ccc(NC(=O)/C=C/CN3CCC(F)C3)c(F)n2)c1` (centres unmarked) [Compound 64, (E)-N-(6-(3-(1-((5-cyclopropyl-1H-pyrazol-3-yl)amino)-1-oxopropan-2-yl)phenyl)-2-fluoropyridin-3-yl)-4-(3-fluoropyrrolidin-1-yl)but-2-enamide] showed a pIC50 of 7.00 to 7.60. The inhibition at 10 µM (10 μM compound) was determined as 94%.
`C=CC(=O)Nc1ccc(-c2cccc(C(C)C(=O)Nc3cc(C4CC4)[nH]n3)c2)c(OC)c1` (centres unmarked) [Compound 73, N-(3′-(1-((5-cyclopropyl-1H-pyrazol-3-yl)amino)-1-oxopropan-2-yl)-2-methoxy-[1,1′-biphenyl]-4-yl)acrylamide]: the pIC50 is less than 7.00. This molecule also gave an inhibition at 10 µM (10 μM compound) of 91%.
The molecule `COC/C=C/C(=O)Nc1ccc(-c2cccc(C(C)C(=O)Nc3cc(C4CC4)[nH]n3)c2)cn1` (centres unmarked) [Compound 41, (E)-N-(5-(3-(1-((5-cyclopropyl-1H-pyrazol-3-yl)amino)-1-oxopropan-2-yl)phenyl)pyridin-2-yl)-4-methoxybut-2-enamide] had a pIC50 of less than 7.00. In addition, the inhibition at 10 µM (10 μM compound) was 90%.
For `CC(C(=O)Nc1cc(C2CC2)[nH]n1)c1cccc(-c2ccc(NC(=O)/C=C/CN3CCOCC3)nc2)c1` (centres unmarked) [Compound 10, (E)-N-(5-(3-(1-((5-cyclopropyl-1H-pyrazol-3-yl)amino)-1-oxopropan-2-yl)phenyl)pyridin-2-yl)-4-morpholinobut-2-enamide], in that order: more than 7.60 and 99%.
Molecule `CN(C)C/C=C/C(=O)Nc1ccc(C(=O)Nc2cccc(Nc3n[nH]c4ccccc34)c2)cc1` [Compound 89, (E)-N-(3-((1H-indazol-3-yl)amino)phenyl)-4-(4-(dimethylamino)but-2-enamido)benzamide] gave an inhibition at 10 µM (10 μM compound) of 45%.
`C=CC(=O)Nc1ccc(-c2cccc(C(C)C(=O)Nc3cc(C4CC4)[nH]n3)c2)nc1` (centres unmarked) [Compound 24, N-(6-(3-(1-((5-cyclopropyl-1H-pyrazol-3-yl)amino)-1-oxopropan-2-yl)phenyl)pyridin-3-yl)acrylamide] showed a pIC50 of 7.00 to 7.60. Also, at 10 µM the inhibition (10 μM compound) was 96%.
The molecule `CC(C(=O)Nc1cc(C2CC2)[nH]n1)c1cccc(-c2ccc(NC(=O)/C=C/CN3CCC(F)C3)nc2)c1` (centres unmarked) [Compound 45, (E)-N-(5-(3-(1-((5-cyclopropyl-1H-pyrazol-3-yl)amino)-1-oxopropan-2-yl)phenyl)pyridin-2-yl)-4-(3-fluoropyrrolidin-1-yl)but-2-enamide] gave a pIC50 of more than 7.60. Under “10 μM compound”, this molecule displayed an inhibition at 10 µM of 89%.
In turn, `C=CC(=O)Nc1ccc(-c2cc(C(C)C(=O)Nc3cc(C4CC4)[nH]n3)ccc2F)cc1F` (centres unmarked) [Compound 23, N-(5′-(1-((5-cyclopropyl-1H-pyrazol-3-yl)amino)-1-oxopropan-2-yl)-2′,3-difluoro-[1,1′-biphenyl]-4-yl)acrylamide] showed a pIC50 of 7.00 to 7.60. Besides, the inhibition at 10 µM (10 μM compound) turned out to be 98%.
Molecule `CC(C(=O)Nc1cc(C2CC2)[nH]n1)c1cccc(-c2ccc(NC(=O)/C=C/CN3CCCC3)c(F)c2)c1` (centres unmarked) [Compound 33, (E)-N-(3′-(1-((5-cyclopropyl-1H-pyrazol-3-yl)amino)-1-oxopropan-2-yl)-3-fluoro-[1,1′-biphenyl]-4-yl)-4-(pyrrolidin-1-yl)but-2-enamide] gave a negative-log IC50 (pIC50) of 7.00 to 7.60. Also, the inhibition at 10 µM (10 μM compound) came out at 97%.
For `C=CC(=O)Nc1ccc(-c2cccc(C(C)C(=O)Nc3n[nH]c(C4CC4)c3C)c2)cc1` (centres unmarked) [Compound 30, N-(3′-(1-((5-cyclopropyl-4-methyl-1H-pyrazol-3-yl)amino)-1-oxopropan-2-yl)-[1,1′-biphenyl]-4-yl)acrylamide], in that order: less than 7.00 and 28%.
`CC(C(=O)Nc1cc(C2CC2)[nH]n1)c1cccc(C2CCN(C(=O)/C=C/CN(C)C)CC2)c1` (centres unmarked) [Compound 85, (E)-N-(5-cyclopropyl-1H-pyrazol-3-yl)-2-(3-(1-(4-(dimethylamino)but-2-enoyl)piperidin-4-yl)phenyl)propanamide] had a pIC50 of less than 7.00. Where the note is “10 μM compound”, this molecule showed an inhibition at 10 µM of 74%.
`CC(C)C(C(=O)Nc1cc(C2CC2)[nH]n1)c1cccc(-c2ccc(NC(=O)/C=C/CN(C)C)nc2)c1` (centres unmarked) [Compound 56, (E)-N-(5-(3-(1-((5-cyclopropyl-1H-pyrazol-3-yl)amino)-3-methyl-1-oxobutan-2-yl)phenyl)pyridin-2-yl)-4-(dimethylamino)but-2-enamide] had a pIC50 of more than 7.60. The inhibition at 10 µM (10 μM compound) came to 96%.
For the molecule `CC(C)(C(=O)Nc1cc(C2CC2)[nH]n1)c1cccc(-c2ccc(NC(=O)/C=C/CN3CCCC3)nc2)c1` [Compound 95, (E)-N-(5-(3-(1-((5-cyclopropyl-1H-pyrazol-3-yl)amino)-2-methyl-1-oxopropan-2-yl)phenyl)pyridin-2-yl)-4-(pyrrolidin-1-yl)but-2-enamide], the pIC50 was less than 7.00. The inhibition at 10 µM (10 μM compound) amounted to 71%.

These data come from US11174232B2, “Substituted heterocyclyl derivatives as CDK inhibitors” (Aurigene Discovery Technologies Limited, priority 2015, dated 2021).
